Measurements published in US11260072B2, “MicroRNA-based methods and assays for osteocarcinoma” (3-D Matrix, Ltd., priority 2011, dated 2022).
d = 2'-deoxy (DNA); r = 2'-OH (RNA)

Tests used:
143B-luc = test: spontaneous lung metastasis model of osteosarcoma (143B-luc implanted orthotopically into tibia); format: in vivo, athymic nude mice
Method: (§1) Tumor transplantation experiments. Animal experiments were performed in compliance with the guidelines of the Institute for Laboratory Animal Research, National Cancer Center Research Institute. Athymic nude mice or NOD/SCID mice (CLEA Japan) were purchased at 4 weeks of age and given at least 1 week to adapt to their new environment prior to tumor transplantation. On day 0, mice were anesthetized with 3% isoflurane and the right leg disinfected with 70% ethanol. Cells were aspirated into a 1 mL tuberculin syringe fitted with a 27-G needle. The needle was inserted through the cortex of the anterior tuberosity of the tibia with a rotating movement to avoid cortical fracture. Once the bone was traversed, the needle was inserted further to fracture the posterior cortex of the tibia. A 100 μL volume of solution containing freshly isolated CD133^high and CD133^low HOS-Luc (10^2, 10^3, 10^4, 10^5 cells per site) or 143B-Luc (1.5×10^6) was injected while slowly moving back the needle.
Monitoring tumor growth, lung metastasis, and toxicity with/without LAN-anti-miR-133a. For the assessment of tumorigenicity between CD133^high and CD133^low HOS-Luc cells, NOD/SCID mice were injected with D-luciferin (150 mg/kg, Promega) by intraperitoneal injection. Ten minutes later, photons from firefly luciferase were counted using the IVIS imaging system (Xenogen Corp.) according to the manufacturer's instructions. Each experimental condition included 5 animals per group and monitoring once a week. For the evaluation of LNA-anti-miR-133a administration into spontaneous lung metastasis of osteosarcoma model mice, individual mice were injected with 10 mg/kg of LNA-anti-miR-133a or saline via the tail vain. LNA were injected on following days 4, 11, 18, 25, 32 postinoculation of 143B-Luc cells. Each experimental condition included 10 animals per group. The development of subsequent lung metastasis was monitored once a week in vivo by the bioluminescent imaging described above for 5 weeks. All data were analyzed using LivingImage software (version 2.50, Xenogen). On day 36, the primary tumor and lung in 5 mice of each group were resected at necropsy for their weight, bioluminescent, and histological analyses. The blood examination, weight of whole body as well as heart, liver, and skeletal muscle, and histopathological examination were performed for the assessment of toxicity.
To extend the in vitro findings and to determine whether silencing of miR-133a could be an effective therapeutic option for osteosarcoma treatment, the effect of LNA-133a on a spontaneous lung metastasis model of osteosarcoma was examined. Experimentally, 1.5×10^6 cells of 143B transfected with firefly luciferase gene (143B-luc) were implanted orthotopically into the right proximal tibia of athymic nude mice. The implanted tumor growth and the presence of distant metastases were analyzed weekly for luciferase bioluminescence using an in vivo imaging system (IVIS). […] To assess the efficacy of the new treatment protocol, results were compared with three control groups (n=10 each): a saline control group, an LNA group, and a CDDP group. At 5 weeks, half the mice in each group were euthanized for further analysis; the remaining mice were monitored for survival.

143B cells = test: qRT-PCR of miRNAs and CD133 mRNA in drug-treated 143B cells; format: cell-based, human; conditions: for CD133 mRNA expression: 143B cells; for expression of miR-1, miR-10b, and miR-133a: 3 days treatment, relative to untreated 143B cells
Source text: (§2) RNA isolation and quantitative real-time RT-PCR of mRNAs and miRNAs. Total RNA was purified from cells and tumor tissues with an RNeasy Mini Kit and RNase-Free DNase Set (QIAGEN). For quantitative polymerase chain reaction (qPCR) of mRNAs, cDNA was synthesized using High-Capacity cDNA Reverse Transcription Kit (Applied Biosystems). For each qPCR reaction, equal amounts of cDNA were mixed with Platinum SYBER Green qPCR SuperMix (Invitrogen) and specific primers (Table 1). Gene expression levels were normalized by beta actin (ACTB) or glyceraldehyde 3-phosphate dehydrogenase (GAPDH). For qPCR of miRNAs, miRNA was converted to cDNA using the TaqMan MicroRNA Reverse Transcription Kit (Applied Biosystems). RNU6B small nuclear RNA was amplified as an internal control. qPCR was performed using each miRNA-specific probe included with the TaqMan MicroRNA Assay on a Real-Time PCR System 7300 and SDS software (Applied Biosystems).
In addition, the expression of miR-133a was enhanced by cisplatin in CD133^low HOS cells. […] CDDP-treated CD133^low HOS cells could form tumors with as few as 100 cells per injection, whereas the untreated CD133^low HOS cells could not (FIG. 23 and Table 9). […] Therefore, we reasoned that silencing of miR-133a before or during chemotherapy would prevent the increase of the expression of miR-133a, which enhanced TIC phenotypes and was induced by chemotherapeutics.

CD133^low HOS cells = test: miR-133a expression in cisplatin-treated CD133low HOS cells; format: cell-based, human
Source text: as §2

CD133^low HOS-luc cells = test: tumorigenicity of CDDP-treated CD133low HOS-luc cells in mice; format: in vivo
Method: as §1, with “A 100 μL volume of solution containing freshly isolated CD133^high and CD133^low HOS-Luc (10^2, 10^3, 10^4, 10^5 cells per site) or 143B-Luc (1.5×10^6) was injected while slowly moving back the needle.” left out
Monitoring tumor growth, lung metastasis, and toxicity with/without LAN-anti-miR-133a. […] Ten minutes later, photons from firefly luciferase were counted using the IVIS imaging system (Xenogen Corp.) according to the manufacturer's instructions. […] The development of subsequent lung metastasis was monitored once a week in vivo by the bioluminescent imaging described above for 5 weeks. All data were analyzed using LivingImage software (version 2.50, Xenogen). […]

miR-1 = test: knock-down of miR-1 in LNA-transfected CD133high SaOS2 cells; format: cell-based, human
Source text: as §2
(§3) Transfection with synthetic miRNAs, LNAs, and siRNAs. […]

CD133^low SaOS2 cells [1] = test: siRNA knockdown, cell growth in the presence of cisplatin; format: cell-based, human; conditions: siRNA 100 nM, 72 h after transfection
Method: (§4) Transfection with synthetic miRNAs, LNAs, and siRNAs. Synthetic hsa-miRs (Pre-miR-hsa-miR-1, -10b, -133a, and negative control (NC; Applied Biosystems, Table 2) and locked nucleic acids (LNAs) (LNA-1, -10b, -133a, and negative control, Exiqon, Table 3) were transfected into each type of cells at 30 nM each (final concentration) using DharmaFECT 1(GE Healthcare). Synthetic siRNAs (Bonac corporation, Table 4) were transfected into each type of cells at 100 nM each (final concentration) using DharmaFECT 1 (GE Healthcare). After 24 hours of incubation, cells were treated with chemotherapeutic agents for cytotoxicity assay or reseeded into invasion chambers for invasion assay.
(§5) Next, the expression of these molecules was reduced using siRNA-induced gene knockdown system to investigate whether these candidates are functionally important targets of miR-133a in osteosarcoma cells.

CD133^low SaOS2 cells [2] = test: siRNA knockdown, invasion assay; format: cell-based, human; conditions: siRNA 100 nM, 72 h after transfection
Method: Invasion assay. Invasion assays were performed by using 24-well BD BioCoat Invasion Chambers with Matrigel (Becton-Dickinson). 1×10^5 cells, suspended in 500 μL DMEM or RPMI 1640 medium without FBS, were added to the upper chamber, and DMEM or RPMI 1640 medium with 10% FBS was added to the lower chamber. After incubation for 24 h or 36 h, the cells on the upper surface of the filter were completely removed by wiping them with cotton swabs. The filters were fixed in methanol and stained with 1% toluidine blue in 1% sodium tetraborate (Sysmex). Filters were then mounted onto slides, and cells on lower surfaces were counted. Each assay was performed in triplicate.
as §4, §5

miR-10b = test: knock-down of miR-10b in LNA-transfected CD133high SaOS2 cells; format: cell-based, human
Source text: as §2, §3

Compound: N.N.[Cl][Pt][Cl] [CDDP, cis-diamtninedichloroplatinum (II)]
- Luminescence of lung (mean) (143B-luc; IVIS bioluminescence): 2855
- tumor growth (143B-luc; compared to the other groups, LNA-133a 10 mg kg-1 i.v., CDDP 2 mg kg-1 i.p.): No significant differences in tumor growth
- Lung metastasis (mice with metastasis / mice in group) (143B-luc; day 35): 8/10
- Tumor weight (mean) (143B-luc; day 36, LNA-133a 10 mg kg-1 i.v., CDDP i.p.): 3.957 g
- CD133 mRNA expression (143B cells): induction
- CD133 mRNA expression (143B cells; listed as cisplatin): induced
- expression of miR-1, miR-10b, and miR-133a (143B cells): increased level
- expression of miR-133a (CD133^low HOS cells): enhanced
- Tumor Incidence (CD133^low HOS-luc cells; 100 cells per injection, cells treated with CDDP): 5/5
- in vivo tumorigenicity of CD133low HOS population (CD133^low HOS-luc cells; mouse, in vivo): increased in vivo tumorigenicity

Compound: COc1cccc2c1C(=O)c1c(O)c3c(c(O)c1C2=O)C[C@@](O)(C(=O)CO)C[C@@H]3O[C@H]1C[C@H](N)[C@H](O)[C@H](C)O1 [DOX, doxorubicin]
- CD133 mRNA expression (143B cells): induction
- expression of miR-1, miR-10b, and miR-133a (143B cells): increased level

Compound: LNA-1: locked nucleic acid antisense to hsa-miR-1-2, 5′-ACATACTTCTTTACATTCCA-3′ (Exiqon) (LNA-modified (Exiqon), pattern not given here)
- miR-1 expression (miR-1): knock-down

Compound: ROD1: synthetic siRNA against ROD1 (Bonac corporation), Table 4 (sense GGGAAUGACAGCAAGAAAUTT; antisense AUUUCUUGCUGUCAUUCCCTT; sugars from the 5' end r19 d2, backbone not given here)
- drug resistance after knockdown (CD133^low SaOS2 cells [1]): enhanced drug resistance

Compound: MAST4: synthetic siRNA against MAST4 (Bonac corporation), Table 4 (sense GGAGGUACCUUCUUCCAAATT; antisense UAUCAAACUUCCUCUUCUGTT; sugars from the 5' end r19 d2, backbone not given here)
- drug resistance after knockdown (CD133^low SaOS2 cells [1]): enhanced drug resistance

Compound: DUSP11: synthetic siRNA against DUSP11 (Bonac corporation), Table 4 (sense CCAGAGGAUUUGCCAGAAATT; antisense UGUGUCUCGGAUUAGGAAGTT; sugars from the 5' end r19 d2, backbone not given here)
- drug resistance after knockdown (CD133^low SaOS2 cells [1]): enhanced drug resistance
- invasiveness after knockdown (CD133^low SaOS2 cells [2]): enhanced invasiveness

Compound: ANXA2: synthetic siRNA against ANXA2 (Bonac corporation), Table 4 (sense UGACCAAGAUGCUCGGGAUTT; antisense AUCCCGAGCAUCUUGGUCATT; sugars from the 5' end r19 d2, backbone not given here)
- drug resistance after knockdown (CD133^low SaOS2 cells [1]): enhanced drug resistance
- invasiveness after knockdown (CD133^low SaOS2 cells [2]): enhanced invasiveness

Compound: SNX30: synthetic siRNA against SNX30 (Bonac corporation), Table 4 (sense CCGAGAAGUUUGUGGUAAATT; antisense UUUACCACAAACUUCUCGGTT; sugars from the 5' end r19 d2, backbone not given here)
- invasiveness after knockdown (CD133^low SaOS2 cells [2]): enhanced invasiveness

Compound: SGMS2: synthetic siRNA against SGMS2 (Bonac corporation), Table 4 (sense CCACUAGAGUGGUGGAAAATT; antisense UUUUCCACCACUCUAGUGGTT; sugars from the 5' end r19 d2, backbone not given here)
- invasiveness after knockdown (CD133^low SaOS2 cells [2]): enhanced invasiveness

Compound: LNA-10b: locked nucleic acid antisense to hsa-miR-10b, 5′-ACAAATTCGGTTCTACAGGGT-3′ (Exiqon) (LNA-modified (Exiqon), pattern not given here)
- miR-10b expression (miR-10b): knock-down

Compound: UBA2: synthetic siRNA against UBA2 (Bonac corporation), Table 4 (sense GGACUGGGCUGAAGUACAATT; antisense UUGUACUUCAGCCCAGUCCTT; sugars from the 5' end r19 d2, backbone not given here)
- invasiveness after knockdown (CD133^low SaOS2 cells [2]): enhanced invasiveness
